This note sets out measurements from ChEMBL document CHEMBL1124888 (J Med Chem, 1990).

In experiment [1] the test system is Rattus norvegicus. The experiment is described as follows: Hyperactivity by regression analysis, through intraperitoneal route of administration. In kind it is functional. The conditions noted are these: ip.
The next experiment deals with D(2) dopamine receptor (Rattus norvegicus, UniProt P61169). The experiment in a line: The affinity for the Dopamine receptor D2 was assessed by the inhibition of [3H]-spiperone binding in rat striatal membranes in vitro. In kind it is cell membranes, Membrane.
Experiment [2] has as its system Rattus norvegicus. The experiment is described as follows: Stereotypies was scored by regression analysis, through intraperitoneal route of administration. It counts as functional. The conditions noted are these: ip.

Chain of D(2) dopamine receptor (P61169 whole entry): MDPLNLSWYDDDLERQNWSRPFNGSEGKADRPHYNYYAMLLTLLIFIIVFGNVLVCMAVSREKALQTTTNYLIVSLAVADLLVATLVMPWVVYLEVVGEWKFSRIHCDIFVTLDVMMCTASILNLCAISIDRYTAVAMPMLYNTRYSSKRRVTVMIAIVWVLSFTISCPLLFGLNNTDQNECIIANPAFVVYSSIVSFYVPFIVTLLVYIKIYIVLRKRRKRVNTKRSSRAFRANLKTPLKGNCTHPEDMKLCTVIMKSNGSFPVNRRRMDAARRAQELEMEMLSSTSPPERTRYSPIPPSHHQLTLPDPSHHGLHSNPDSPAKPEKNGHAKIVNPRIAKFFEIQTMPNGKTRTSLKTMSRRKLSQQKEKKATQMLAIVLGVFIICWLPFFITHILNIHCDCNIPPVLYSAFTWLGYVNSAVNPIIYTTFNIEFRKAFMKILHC

Regarding `CCN1CCC[C@@H]1CNC(=O)c1cc(Br)cc(OC)c1OC`, the ED50 with Rattus norvegicus [1] and in the experiment on Rattus norvegicus [2] was greater than 20 µmol/kg throughout. Besides, on D(2) dopamine receptor, the IC50 (as a rule, the midpoint of a concentration-inhibition curve) amounted to 145 nM.
Regarding `CCN1CCC[C@H]1CNC(=O)c1c(OC)ccc(Br)c1O`, the median effective dose (ED50) – broadly, the dose that gives a 50% effect, or the effect in half of the subjects – is 0.054 µmol/kg with Rattus norvegicus [1] and 0.32 µmol/kg in the experiment on Rattus norvegicus [2].
Regarding `CCN1CCC[C@H]1CNC(=O)c1cc(Br)cc(OC)c1OC`, the figures for the 50% effective dose (ED50) with Rattus norvegicus [1] and with Rattus norvegicus [2] were 0.002 µmol/kg and 0.14 µmol/kg, respectively. The compound also gave an IC50 at D(2) dopamine receptor of 1.2 nM.
`CCN1CCC[C@H]1CNC(=O)c1cc(Br)cc2c1OCC2`: the ED50 in the experiment with Rattus norvegicus [1] was 2 µmol/kg; in the experiment with Rattus norvegicus [2] it was 4.7 µmol/kg.
In turn, `CCN1CCCC1CNC(=O)c1cc(Br)cc(OC)c1O` (stereo unspecified) had an IC50 at D(2) dopamine receptor of 8210 nM.
Take `CCN1CCC[C@H]1CNC(=O)c1cc(Br)cc2c1OCCO2`: the ED50 worked out at 3.8 µmol/kg with Rattus norvegicus [1] and 12.8 µmol/kg in the experiment with Rattus norvegicus [2]. Also, the IC50 on D(2) dopamine receptor is 46 nM.
For `CCN1CCCC1CNC(=O)c1cc(Br)c(OC)cc1OC` (stereo unspecified), in that order: 3.2 µmol/kg, 10.7 µmol/kg and 44 nM.
For `CCN1CCCC1CNC(=O)c1cc(Br)ccc1OC` (stereo unspecified), in that order: 3 µmol/kg, 6.7 µmol/kg and 46 nM.
For `COc1cc(Br)cc(C(=O)NC2CCN(Cc3ccccc3)CC2)c1OC`, in that order: 0.28 µmol/kg, 0.24 µmol/kg and 5 nM.
In the case of `COc1cccc(C(=O)NC2CC3CCC(C2)N3Cc2ccccc2)c1OC` (stereo unspecified), the ED50 in the experiment with Rattus norvegicus [1] stood at 0.016 µmol/kg; with Rattus norvegicus [2], 0.043 µmol/kg. For the same compound, the IC50 on D(2) dopamine receptor was 1.7 nM.
For `CCN1CCCC1CNC(=O)c1cccc(OC)c1OC` (stereo unspecified), in that order: roughly 10 µmol/kg, roughly 10 µmol/kg and 52 nM.
Consider `CCN1CCCC1CNC(=O)c1cc(Br)cc(O)c1OC` (stereo unspecified), for which the ED50 in the experiment with Rattus norvegicus [1] turned out to be 1.2 µmol/kg; in the experiment on Rattus norvegicus [2], 2.1 µmol/kg. The same compound yielded an IC50 on D(2) dopamine receptor of 10 nM.
Regarding `CCN1CCC[C@H]1CNC(=O)c1c(O)c(Br)cc(OC)c1OC`, the values for the ED50 with Rattus norvegicus [1] and in the experiment on Rattus norvegicus [2] were 0.009 µmol/kg and 0.049 µmol/kg, respectively.
Taken in the same sequence, the figures for `CCN1CCC[C@H]1CNC(=O)c1c(O)c(Cl)cc(Cl)c1OC` [RACLOPRIDE] were 0.13 µmol/kg and 1.8 µmol/kg.
